Source: paper PMC6002953 (ACS chemical neuroscience, 2017)
Values joined by “and” are separate entries in the source; they are usually repeats but may differ in a detail not shown here. Identical values can stand only once.

Experiments:
[1] = system: MDCK-MDR1 monolayers; assay: BBB permeability, bidirectional transport through MDCK-MDR1 monolayers; settings: 10 μM test article, single determination
[2] = target: T1, human OX1 receptor (Homo sapiens, UniProt O43613); assay: Calcium mobilization Ke assay, OX1; format: cell-based
T1 sequence (O43613 1-425): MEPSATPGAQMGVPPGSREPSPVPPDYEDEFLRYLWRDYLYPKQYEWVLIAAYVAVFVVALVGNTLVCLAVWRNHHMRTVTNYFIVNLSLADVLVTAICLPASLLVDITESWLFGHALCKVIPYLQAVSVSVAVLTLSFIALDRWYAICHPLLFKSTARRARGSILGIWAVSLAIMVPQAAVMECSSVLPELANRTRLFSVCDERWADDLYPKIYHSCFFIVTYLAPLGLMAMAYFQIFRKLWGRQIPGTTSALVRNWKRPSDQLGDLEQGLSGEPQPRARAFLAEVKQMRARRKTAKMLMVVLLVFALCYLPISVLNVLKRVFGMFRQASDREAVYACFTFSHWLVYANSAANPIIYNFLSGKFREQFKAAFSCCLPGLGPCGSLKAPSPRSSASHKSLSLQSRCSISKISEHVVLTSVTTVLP

[3] = target: T2, human OX2 receptor (Homo sapiens, UniProt O43614); assay: Calcium mobilization Ke assay, OX2; format: cell-based
T2 sequence (O43614 1-444): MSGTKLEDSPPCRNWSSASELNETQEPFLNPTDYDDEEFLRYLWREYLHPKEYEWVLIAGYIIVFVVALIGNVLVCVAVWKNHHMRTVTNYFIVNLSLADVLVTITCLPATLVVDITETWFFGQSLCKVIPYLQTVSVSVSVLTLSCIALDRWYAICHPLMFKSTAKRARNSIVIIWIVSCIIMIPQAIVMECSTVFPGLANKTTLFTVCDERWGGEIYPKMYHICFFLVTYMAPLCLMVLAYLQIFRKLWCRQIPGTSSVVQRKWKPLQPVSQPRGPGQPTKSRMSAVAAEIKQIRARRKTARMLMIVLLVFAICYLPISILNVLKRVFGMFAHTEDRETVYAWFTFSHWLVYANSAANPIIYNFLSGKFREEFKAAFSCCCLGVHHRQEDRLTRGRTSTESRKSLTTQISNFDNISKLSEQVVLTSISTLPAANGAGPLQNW

[4] = Kinetic solubility in PBS pH 7.4; format: physicochemical; settings: pH 7.4, aqueous buffer, kinetic from dmso stock
[5] = system: P-glycoprotein (MDR1); assay: BBB permeability, bidirectional transport through MDCK-MDR1 monolayers; settings: dog, MDCK-MDR1, pH 7.4

Structure (SMILES) | Papp A-to-B ([1]; MDCK-MDR1, apical-to-basolateral) | Papp B-to-A ([1]; MDCK-MDR1, basolateral-to-apical) | Kd [2] | selectivity over OX2 ([2]; OX1 over OX2, calcium mobilization assays) | OX2/OX1 ([2]; ratio of Ke values OX2/OX1) | Kd [3] | solubility kinetic at 2 h [4] | Papp A→B at 90 min, 10 μM [5] | Papp B→A at 90 min, 10 μM [5] | efflux ratio at 90 min, 10 μM [5]
COc1ccc(CC2c3cc(OCC(F)(F)F)c(OC)cc3CCN2CC(=O)NCc2cccnc2)cc1OC (stereo not shown) [Compound 5, reference compound] | 12.2 10^−6 cm/sec | 36.2 10^−6 cm/sec | – | – | – | – | – | – | – | –
COc1ccc(CC2c3cc(N(C)C)c(OC)cc3CCN2CC(=O)NCc2cccnc2)cc1N(C)C (stereo not shown) [Compound 44, 2-[7-(Dimethylamino)-1-{[3-(dimethylamino)-4-methoxyphenyl]methyl}-6-methoxy-1,2,3,4-tetrahydroisoquinolin-2-yl]-N-(pyridin-3-ylmethyl)acetamide] | – | – | 5.7 ± 1 nM | > 1,760 fold and > 1,000 fold | >1,760 | > 10000 nM | > 200 µM | 147 nm/s | 478 nm/s | 3.3
